Assay results as given in BigSolDB 2.1.

O=C(O)CCCC(=O)O
Settings	solubility (mole fraction)
in cyclohexanone, 295.35 K	0.17
in cyclohexanone, 299.35 K	0.184
in cyclohexanone, 303.65 K	0.198
in cyclohexanone, 307.75 K	0.228
in cyclohexanone, 311.85 K	0.251
in methanol, 287.05 K	0.204
in methanol, 295.55 K	0.239
in methanol, 299.15 K	0.256
in methanol, 302.85 K	0.274
in methanol, 306.95 K	0.294
in methanol, 310.15 K	0.316
in methanol, 313.45 K	0.34
in methanol, 317.15 K	0.37
in methanol, 321.15 K	0.403
in methanol, 324.85 K	0.436
in methanol, 328.95 K	0.472
